Reference: patent US11261213B2, “Crystalline bis- and tris-hydrochloride salt of elamipretide” (Stealth BioTherapeutics Inc., priority 2018, dated 2022)
In brackets after ≈: the same amount, converted by molar mass. Structures can show the parent of a compound that is named as a salt. Where two headings read alike, the source gives them in different places. Residues, ends and D or L forms follow the SMILES beside them.

How the values were obtained:
physchem [1] = test: physchem
[2] = Gravimetric vapour sorption (GVS); type: physicochemical
Procedure: Approximately 15 mg of sample was placed into a mesh vapour sorption balance pan and loaded into an IGASorp Moisture Sorption Analyser balance by Hiden Analytical. The sample was subjected to a ramping profile from 40-90% relative humidity (RH) at 10% increments, maintaining the sample at each step until a stable weight had been achieved (98% step completion). After completion of the sorption cycle, the sample was dried using the same procedure to 0% RH, then subjected to a second ramping profile from 0-90% relative humidity. After completion of the second sorption cycle, the sample was dried using the same procedure to 0% RH, and finally taken back to the starting point of 40% RH. The weight change during the sorption/desorption cycles were plotted, allowing for the hygroscopic nature of the sample to be determined.

[3] = Effect of drying and humidity exposure on crystalline solid (XRPD); type: physicochemical
Procedure: Powder x-ray diffraction (XRPD) experiments were performed on a Rigaku MiniFlex 600 equipped with a Cu Kα radiation source (wavelength of x-rays 1.54 Å), and a scintillation detector. Samples were prepared on Si zero-return wafers. Scans were performed from 2θ 4 to 30 degrees over a step size of 0.05 over thirty minutes with cathode ray tube voltage and current 40 kV and 15 mA, respectively.
The crystalline solid was dried at 50 C under vacuum overnight, and analyzed by XRPD. […] Furthermore, the dry solid was exposed to about 95% relative humidity at room temperature for 24 hours followed by XRPD analysis. […] It should be noted that 3-HCl salt of MTP-131 deliquesces at more than 70% relative humidity.

physchem [4] = conditions: water
Procedure: The solubility of the crystalline solid was assessed qualitatively in water.

## Cc1cc(O)cc(C)c1C[C@H](NC(=O)[C@H](N)CCCNC(=N)N)C(=O)N[C@@H](CCCCN)C(=O)N[C@@H](Cc1ccccc1)C(N)=O [MTP-131 HCl] (HELM PEPTIDE1{[dR].[Cc1cc(O)cc(C)c1C[C@H](N[*:1])C(=O)[*:2]].K.F.[am]}$$$$V2.0)
Physchem [1]
  solubility: ≤ 10000 µg/mL
Physchem [1]; 2-Propanol, Solubility at 50° C.
  solubility: < 10000 µg/mL
Physchem [1]; 2-Propanol:Water (95:5 v/v), Solubility at 50° C., 2-Propanol:Water (95:5 v/v)
  solubility: < 10000 µg/mL
Physchem [1]; 2-Propanol:Water (99:1 v/v), Solubility at 50° C., 2-Propanol:Water (99:1 v/v)
  solubility: < 10000 µg/mL
Physchem [1]; Acetone, Solubility at 50° C.
  solubility: < 10000 µg/mL
Physchem [1]; Acetone:Water (95:5 v/v), Solubility at 50° C., Acetone:Water (95:5 v/v)
  solubility: < 10000 µg/mL
Physchem [1]; Acetonitrile:DMSO (85:15 v/v), Solubility at 50° C., Acetonitrile:DMSO (85:15 v/v)
  solubility: < 10000 µg/mL
Physchem [1]; Acetonitrile:Water (95:5 v/v), Solubility at 50° C., Acetonitrile:Water (95:5 v/v)
  solubility: < 10000 µg/mL
Physchem [1]; Acetonitrile:Water (99:1 v/v), Solubility at 50° C., Acetonitrile:Water (99:1 v/v)
  solubility: < 10000 µg/mL
Physchem [1]; DCM:DMSO (85:15 v/v), Solubility at 50° C., DCM:DMSO (85:15 v/v)
  solubility: < 10000 µg/mL
Physchem [1]; Dichloromethane, Solubility, carried out at 35° C. (footnote)
  solubility: < 10000 µg/mL
Physchem [1]; Ethanol, Solubility at 50° C.
  solubility: 10000 µg/mL
Physchem [1]; Ethanol:DMSO (95:5% v/v), Solubility at 50° C., Ethanol:DMSO (95:5% v/v)
  solubility: ~33000 µg/mL
Physchem [1]; Ethanol:Water (95:5 v/v), Solubility at 50° C., Ethanol:Water (95:5 v/v)
  solubility: ~67000 µg/mL
Physchem [1]; Methanol, Solubility at 50° C.
  solubility: > 200000 µg/mL
Physchem [1]; Methanol:Water (95:5 v/v), Solubility at 50° C., Methanol:Water (95:5 v/v)
  solubility: > 200000 µg/mL
Physchem [1]; THF:Water (95:5% v/v), Solubility at 50° C., THF:Water (95:5% v/v), (separated)
  solubility: < 10000 µg/mL
Physchem [1]; THF:Water (99:1 v/v), Solubility at 50° C., THF:Water (99:1 v/v)
  solubility: < 10000 µg/mL
Physchem [1]; Trifluoroethanol, Solubility at 50° C.
  solubility: < 10000 µg/mL
[2]
  Hygroscopicity by GVS: highly hygroscopic
[2]; between 40-90% RH
  GVS mass increase: ca. 30%
[2]; ramping up to 90% RH
  State of solid after GVS: deliquesced and adhered to the basket
[3]
  Relative humidity at which the salt deliquesces: more than 70 % relative humidity

## Cc1cc(O)cc(C)c1C[C@H](NC(=O)[C@H](N)CCCNC(=N)N)C(=O)N[C@@H](CCCCN)C(=O)N[C@@H](Cc1ccccc1)C(N)=O [crystalline solid] (HELM PEPTIDE1{[dR].[Cc1cc(O)cc(C)c1C[C@H](N[*:1])C(=O)[*:2]].K.F.[am]}$$$$V2.0)
Physchem [4]
  solubility: ~60000 µg/mL (≈ 93.8 mM)
[3]; about 95% relative humidity, room temperature, 24 hours
  Physical integrity after humidity exposure: physically kept its integrity
[3]; dried at 50 C under vacuum overnight
  XRPD pattern after drying (stability upon drying): No changes were observed
[3]; dry solid, about 95% relative humidity, room temperature, 24 hours
  XRPD after humidity exposure: remained unchanged
